# Measured values published in patent publication US4543349A, “Basic heptapeptide vasopressin antagonists” (priority 1984, dated 1985).
# Starred links: 1 amine or outer side, 2 acyl side, 3 side chain; linkers in the order of their positions; H or OH if unused. Positions of bridges follow the written chain, without caps; N, C: chain ends. Non-standard residues stand in square brackets, D forms with d. Residues, ends and D or L forms follow the SMILES beside them. *: point of attachment. X1 = O=C(CC1(S[*:2])CCCCC1)[*:1]; Agmatine = N=C(N)NCCCCN*; NH(CH2)5NH2 = NCCCCCN*; NH(CH2)4NH2 = NCCCCN*
# What was measured:
# [1] = molecular target: T1, vasopressin receptors (V2 -receptors) (Sus scrofa, UniProt P32307); assay: 3H-vasopressin binding assay, hog kidney medullary membranes; conditions: competitive inhibition of 3H-vasopressin binding, read-out: Swine KB
# T1 construct: from tissue; host or cells: hog kidney medullary membranes
# T1 sequence (P32307 whole entry): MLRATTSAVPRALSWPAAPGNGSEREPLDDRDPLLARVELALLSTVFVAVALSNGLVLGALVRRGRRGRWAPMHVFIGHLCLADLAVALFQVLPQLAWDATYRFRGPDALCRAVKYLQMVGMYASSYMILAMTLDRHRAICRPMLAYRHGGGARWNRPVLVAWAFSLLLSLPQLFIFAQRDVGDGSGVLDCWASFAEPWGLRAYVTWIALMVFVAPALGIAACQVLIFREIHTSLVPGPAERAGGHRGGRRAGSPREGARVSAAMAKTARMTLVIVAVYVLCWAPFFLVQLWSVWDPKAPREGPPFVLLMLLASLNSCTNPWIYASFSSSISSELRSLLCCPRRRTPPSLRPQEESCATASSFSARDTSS
# Experimental: Antagonistic activity toward the natural antidiuretic hormone (anti-ADH activity) is determined, in vitro, in the medullary tissue of hog or human kidneys and, in vivo, in the hydropenic rat. The in vitro assay procedures for vasopressin stimulated adenylate cyclase activation or vasopression binding activity are described by F. Stassen et al., J. Pharmacology and Experimental Therapeutics, 223, 50-54 (1982).
# These values represent total and non-specific binding, respectively.
# [2] = molecular target: vasopressin stimulated adenylate cyclase; assay: Vasopressin stimulated adenylate cyclase activity, human kidney medullary tissue; type: biochemical; conditions: human kidney medullary membrane
# Experimental: (§1) In the test procedure for assay of adenylate cyclase activity, the amount of ^32 P/cAMP formed in the absence of medullary membrane is determined (blank). The blank value is subtracted from all experimental data. The compound is tested for its effect on basal adenylate cyclase activity and/or on vasopressin stimulated activity. Each determination is carried out in triplicate. The Ka value is derived from a Lineweaver-Burkeplot. Rel. Vmax =(Vmax drug/Vmax vasopressin)×100. Ki =I/[Ka'/Ka)-1] where I is the concentration of the antagonist, and Ka' and Ka are the concentrations of vasopressin required to give half maximal activity of adenylate cyclase in the presence and absence of antagonist, respectively.
# [3] = molecular target: vasopressin stimulated adenylate cyclase; assay: Vasopressin stimulated adenylate cyclase activity, hog kidney medullary tissue; type: biochemical; conditions: swine kidney medullary membrane
# Experimental: as §1
# [4] = tested on: hydropenic rat; assay: Hydropenic rat screen (anti-ADH activity in vivo); conditions: dose required to lower urine osmolality to 300 m-Osmoles/kg; intraperitoneal; hydropenic male rats
# Experimental: The assay for anti-ADH activity in vivo is the hydropenic rat protocol described below:
# Food and water are removed from male rats approximately 18 hours prior to testing. Animals are housed 4 per metabolism cage. At 0 hour, the test compound is administered intraperitoneally to the test group and an equivalent volume of vehicle is administered to both control groups (fasted and non-fasted). Urine volume and osmolality are measured every hour for 4 hours. Test values are recorded as ml of urine excreted (cumulative), mEq/rat electrolyte excreted, mg/rat urea excreted, and osmolality in milli-Osmoles/kg H2 O. A tolerance test is used to determine significance. Ed300 is defined as the dose of compound (μg/kg) required to lower urine osmolality to 300 m-Osmoles/kg.
Compound,Kb [1],Ki [2],Ki [3],Rat ED300 [4]
"CC(C)[C@@H]1NC(=O)[C@H](Cc2ccccc2)NC(=O)[C@@H](Cc2ccc(O)cc2)NC(=O)CC2(CCCCC2)SSC[C@@H](C(=O)N2CCC[C@H]2C(=O)NCCCCCN)NC(=O)[C@H](CC(N)=O)NC1=O [A, [1-(β-Mercapto-β,β -cyclopentamethylenepropionic acid)-2-D-tyrosine-4-valine-8-(1,5-diaminopentane)-8-desarginine-9-desglycineamide]-vasopressin] (HELM PEPTIDE1{[dY].F.V.N.C.P.[NCCCCCN[*:1]]}|CHEM1{[O=C(CC1(S[*:2])CCCCC1)[*:1]]}$PEPTIDE1,CHEM1,1:R1-1:R1|PEPTIDE1,CHEM1,5:R3-1:R2$$$V2.0)",0.22 µM,,,
"CCOc1ccc(C[C@H]2NC(=O)CC3(CCCCC3)SSC[C@@H](C(=O)N3CCC[C@H]3C(=O)NCCCCN)NC(=O)[C@H](CC(N)=O)NC(=O)[C@H](C(C)C)NC(=O)[C@H](Cc3ccccc3)NC2=O)cc1 [C, [1-(β-Mercapto-β,β -cyclopentamethylenepropionic acid)-2-(O--ethyl-D-tyrosine)-4-valine-8-(1,4-diaminobutane)-8-desarginine-9-desglycinamide]-vasopressin] ([dY](Et)FVNCP-{NH(CH2)4NH2}; linker N-5 via X1)",0.0092 µM,0.0075 µM,0.0064 µM,0.019 mg/kg
"CCOc1ccc(C[C@H]2NC(=O)CC3(CCCCC3)SSC[C@@H](C(=O)NCCCCCN)NC(=O)[C@H](CC(N)=O)NC(=O)[C@H](C(C)C)NC(=O)[C@H](Cc3ccccc3)NC2=O)cc1 [F, [1-(β-Mercapto-β,β -cyclopentamethylenepropionic acid)-2-(O--ethyl-D-tyrosine)-4-valine-7-desproline-8-desarginine-9-desglycinamide-7-(1,5-diaminopentane)]-vasopressin]",0.019 µM,,,
"CC(C)[C@@H]1NC(=O)[C@H](Cc2ccccc2)NC(=O)[C@@H](Cc2ccc(O)cc2)NC(=O)CC2(CCCCC2)SSC[C@@H](C(=O)N2CCC[C@H]2C(=O)O)NC(=O)[C@H](CC(N)=O)NC1=O [E, [1-(β-Mercapto-β,β -cyclopentamethylenepropionic acid)-2-D-tyrosine-4-valine-8-desarginine-9-desglycinamide]-vasopressin] (HELM PEPTIDE1{[dY].F.V.N.C.P}|CHEM1{[O=C(CC1(S[*:2])CCCCC1)[*:1]]}$PEPTIDE1,CHEM1,1:R1-1:R1|PEPTIDE1,CHEM1,5:R3-1:R2$$$V2.0)",17 µM,,,
"CCOc1ccc(C[C@H]2NC(=O)CC3(CCCCC3)SSC[C@@H](C(=O)N3CCC[C@H]3C(=O)NCCCCN=C(N)N)NC(=O)[C@H](CC(N)=O)NC(=O)[C@H](C(C)C)NC(=O)[C@H](Cc3ccccc3)NC2=O)cc1 [G, [1-(β-Mercapto-β,β -cyclopentamethylenepropionic acid)-2-(O--ethyl-D-tyrosine)-4-valine-8-desarginine-9-desglycinamide-8-(1,4-aminoguanidinobutane)]-vasopressin] ([dY](Et)FVNCP-Agmatine; linker N-5 via X1)",0.014 µM,,,
"CCOc1ccc(C[C@H]2NC(=O)CC3(CCCCC3)SSC[C@@H](C(=O)N3CCC[C@H]3C(=O)O)NC(=O)[C@H](CC(N)=O)NC(=O)[C@H](C(C)C)NC(=O)[C@H](Cc3ccccc3)NC2=O)cc1 [D, [1-(β-Mercapto-β,β -cyclopentamethylenepropionic acid)-2-(O--ethyl-D-tyrosine)-4-valine-8-desarginine-9-desglycinamide]-vasopressin] ([dY](Et)FVNCP-OH; linker N-5 via X1)",0.41 µM,,,
"CCOc1ccc(C[C@H]2NC(=O)CC3(CCCCC3)SSC[C@@H](C(=O)N3CCC[C@H]3C(=O)NCCCCCN)NC(=O)[C@H](CC(N)=O)NC(=O)[C@H](C(C)C)NC(=O)[C@H](Cc3ccccc3)NC2=O)cc1 [B, [1-(β-Mercapto-β,β -cyclopentamethylenepropionic acid)-2-(O--ethyl-D-tyrosine)-4-valine-8-(1,5-diaminopentane)-8-desarginine-9-desglycinamide]-vasopressin] ([dY](Et)FVNCP-{NH(CH2)5NH2}; linker N-5 via X1)",0.029 µM,,,
